Results: ChEMBL document CHEMBL1144741, “Review of cytotoxic cephalostatins and ritterazines: isolation and synthesis” (2008)
Each block holds one compound with its values, some of them ahead of it.

What was measured:
Type in all cases: functional
SF-295 = test: Antitumor activity against human SF295 cells
HOP-62 = test: Antitumor activity against human HOP62 cells
CCRF-CEM = test: Antitumor activity against human CCRF-CEM cells
DMS-273 = test: Antitumor activity against human DMS273 cells
[1] = Antitumor activity against human […] cells
HL-60 = test: Antitumor activity against human HL60 cells
U-251 = test: Antitumor activity against human U251 cells
P388 = test: Antitumor activity against mouse P388 cells; conditions: for EC50: read-out: ED50 (the source's name)
RXF 393 = test: Antitumor activity against human RXF393 cells

Compound: C[C@@H]1[C@H]2CC=C3[C@@H]4CC[C@H]5Cc6nc7c(nc6C[C@]5(C)[C@H]4CC(=O)[C@@]32COC1(O)[C@H](O)CC(C)(C)O)C[C@@H]1CC[C@H]2C3=C[C@@H]4O[C@]5(O[C@](C)(CO)C[C@H]5O)[C@@H](C)[C@]4(O)[C@@]3(C)[C@H](O)C[C@@H]2[C@@]1(C)C7 (stereo not given in full) [CEPHALOSTATIN 9]
GI50 (SF-295): < 0.1 nM
GI50 (HOP-62): < 0.1 nM
GI50 (CCRF-CEM): < 0.1 nM
GI50 (DMS-273): < 0.1 nM
GI50 [1]: < 0.1 nM
GI50 (HL-60): < 0.1 nM
GI50 (U-251): < 0.1 nM
GI50 (P388): < 0.1 nM
GI50 (RXF 393): < 0.1 nM

Compound: C[C@@H]1[C@]2(O[C@H]3C=C4[C@@H]5CC[C@H]6Cc7nc8c(nc7C[C@]6(C)[C@H]5C[C@@H](O)[C@]4(C)[C@]31O)C[C@@H]1CC[C@H]3C4=C[C@@H]5O[C@]6(CC[C@](C)(O)CO6)C[C@]5(O)[C@@]4(C)[C@H](O)C[C@@H]3[C@@]1(C)C8)O[C@](C)(CO)C[C@H]2O [CEPHALOSTATIN 7]
GI50 (SF-295): < 0.1 nM
GI50 (HOP-62): < 0.1 nM
GI50 (CCRF-CEM): < 0.1 nM
GI50 (DMS-273): < 0.1 nM
GI50 [1]: < 0.1 nM
GI50 (HL-60): < 0.1 nM
GI50 (U-251): < 0.1 nM
GI50 (P388): < 0.1 nM
GI50 (RXF 393): < 0.1 nM

Compound: C[C@@H]1[C@@]2(CC[C@@](C)(CO)O2)O[C@H]2C=C3[C@@H]4[C@@H](O)C[C@H]5Cc6nc7c(nc6C[C@]5(C)[C@H]4C[C@@H](O)[C@]3(C)[C@]21O)C[C@@H]1CC[C@H]2[C@H]3C[C@@H]4O[C@]5(CCC(C)(C)O5)[C@@H](C)[C@@H]4[C@@]3(C)[C@H](O)C[C@@H]2[C@@]1(C)C7 [RITTERAZINE C]
EC50 (P388): 102 nM

Compound: C[C@H]1[C@@H](O)C2(Oc3cc4c(c5c3[C@H](C[C@H]5O)[C@@H]2C)CC[C@H]2Cc3nc5c(nc3C[C@]42C)C[C@@H]2CC[C@H]3C4=C[C@@H]6O[C@@]7(C[C@]6(O)[C@@]4(C)[C@H](O)C[C@@H]3[C@@]2(C)C5)O[C@](C)(CO)C[C@H]7O)OC1(C)C (stereo not given in full) [CEPHALOSTATIN 5]
EC50 (P388): 42.5 nM

Compound: C[C@H]1[C@H]2C[C@@H](O)c3c4c(cc(c32)OC12OC(C)(C)C[C@H]2O)[C@@]1(C)Cc2nc3c(nc2C[C@@H]1CC4)C[C@@]1(C)[C@@H](CC[C@H]2C4=C[C@@H]5O[C@@]6(C[C@]5(O)[C@@]4(C)[C@H](O)C[C@@H]21)O[C@](C)(CO)C[C@H]6O)C3 (stereo not given in full) [CEPHALOSTATIN 6]
EC50 (P388): 2.3 nM

Compound: C[C@@H]1[C@@]2(CC[C@](C)(O)CO2)O[C@H]2C=C3[C@@H]4[C@@H](O)C[C@H]5Cc6nc7c(nc6C[C@]5(C)[C@H]4C[C@@H](O)[C@]3(C)[C@]21O)C[C@@H]1CC[C@H]2[C@H]3C[C@@H]4O[C@]5(CCC(C)(C)O5)C[C@@H]4[C@@]3(C)[C@H](O)C[C@@H]2[C@@]1(C)C7 [RITTERAZINE F]
EC50 (P388): 0.81 nM

Compound: C[C@@H]1[C@]2(O[C@H]3C=C4[C@@H]5CC[C@H]6Cc7nc8c(nc7C[C@]6(C)[C@H]5C[C@@H](O)[C@]4(C)[C@]31O)C[C@@H]1CC[C@H]3C4=C[C@@H]5O[C@]6(O[C@](C)(CO)C[C@H]6O)[C@@H](C)[C@]5(O)[C@@]4(C)[C@H](O)C[C@@H]3[C@@]1(C)[C@H]8O)O[C@](C)(CO)C[C@H]2O [CEPHALOSTATIN 13]
EC50 (P388): 47.9 nM

Compound: C[C@@H]1[C@@]2(CC[C@](C)(O)CO2)O[C@H]2C=C3[C@@H]4[C@@H](O)C[C@H]5Cc6nc7c(nc6C[C@]5(C)[C@H]4C[C@@H](O)[C@]3(C)[C@]21O)C[C@@H]1CC[C@@H]2[C@H](CC(=O)[C@]3(C)[C@H]4C[C@@]5(CCC(C)(C)O5)O[C@H]4C[C@]23O)[C@@]1(C)C7 [RITTERAZINE I]
EC50 (P388): 15.3 nM

Compound: CO[C@H]1c2nc3c(nc2C[C@@H]2CC[C@H]4C5=CC[C@@H]6[C@@H](C)[C@]7(OC[C@]56C(=O)C[C@@H]4[C@]21C)OC(C)(C)C[C@H]7O)C[C@@]1(C)[C@@H](CC[C@H]2C4=C[C@@H]5O[C@]6(O[C@](C)(CO)C[C@H]6O)[C@@H](C)[C@]5(O)[C@@]4(C)[C@H](O)C[C@@H]21)C3 [CEPHALOSTATIN 11]
EC50 (P388): 2.7 nM

Compound: C[C@@H]1C[C@]2(O[C@H]3C=C4[C@@H]5CC[C@H]6Cc7nc8c(nc7C[C@]6(C)[C@H]5C[C@@H](O)[C@]4(CO)[C@H]3[C@@H]2C)C[C@@H]2CC[C@H]3C4=C[C@@H]5O[C@]6(O[C@](C)(CO)C[C@H]6O)[C@@H](C)[C@]5(O)[C@@]4(C)[C@H](O)C[C@@H]3[C@@]2(C)C8)OC1(C)C [CEPHALOSTATIN 8]
GI50 (SF-295): < 0.1 nM
GI50 (HOP-62): < 0.1 nM
GI50 (CCRF-CEM): < 0.1 nM
GI50 (DMS-273): < 0.1 nM
GI50 [1]: < 0.1 nM
GI50 (HL-60): < 0.1 nM
GI50 (U-251): < 0.1 nM
GI50 (P388): < 0.1 nM
GI50 (RXF 393): < 0.1 nM

The remaining lines, values ahead:

EC50 (P388): 2340 nM
Compound: C[C@H]1[C@H]2[C@H](C[C@]3(C(=O)C[C@H]4[C@H]3CC[C@H]3Cc5nc6c(nc5C[C@@]34C)C[C@@H]3CC[C@@H]4[C@@H](CC(=O)[C@]5(C)[C@@H]7[C@H](C[C@]45O)O[C@]4(CC[C@](C)(O)CO4)[C@H]7C)[C@@]3(C)C6)[C@@]2(C)O)O[C@@]12CCC(C)(C)O2 [RITTERAZINE U]

EC50 (P388): 2460 nM
Compound: C[C@H]1[C@H]2[C@H](C[C@@H]3[C@@H]4CC[C@H]5Cc6nc7c(nc6C[C@]5(C)[C@@H]4C[C@@H](O)[C@]23C)C[C@@H]2CC[C@H]3[C@H]4C[C@@H]5O[C@@]6(CCC(C)(C)O6)[C@@H](C)[C@@H]5[C@@]4(C)[C@H](O)C[C@@H]3[C@@]2(C)C7)O[C@@]12CCC(C)(C)O2 [RITTERAZINE R]

EC50 (P388): 14 nM
Compound: C[C@@H]1[C@@]2(CC[C@](C)(O)CO2)O[C@H]2C=C3[C@@H]4[C@@H](O)C[C@H]5Cc6nc7c(nc6C[C@]5(C)[C@H]4C[C@@H](O)[C@]3(C)[C@]21O)C[C@@H]1CC[C@H]2C3=C[C@@H]4O[C@]5(CC[C@@](C)(O)CO5)[C@@H](C)[C@]4(O)[C@@]3(C)[C@H](O)C[C@@H]2[C@@]1(C)C7 [RITTERAZINE J]

EC50 (P388): 4 nM
Compound: C[C@H]1[C@H]2[C@H](C=C3[C@@H]4CC[C@H]5Cc6nc7c(nc6C[C@]5(C)[C@@H]4C[C@@H](O)[C@@]32C)C[C@@H]2CC[C@H]3[C@H]4C[C@@H]5O[C@@]6(CCC(C)(C)O6)[C@@H](C)[C@@H]5[C@@]4(C)[C@H](O)C[C@@H]3[C@@]2(C)C7)O[C@]12CC[C@](C)(O)CO2 [RITTERAZINE Y]

EC50 (P388): 3630 nM
Compound: C[C@H]1[C@H]2[C@H](C=C3[C@@H]4CC[C@H]5Cc6nc7c(nc6C[C@]5(C)[C@@H]4C[C@@H](O)[C@@]32C)C[C@@H]2CC[C@@H]3[C@H](CC(=O)[C@]34C[C@@H]3O[C@@]5(CCC(C)(C)O5)[C@@H](C)[C@@H]3[C@]4(C)O)[C@@]2(C)C7)O[C@]12C[C@](C)(CO)CO2 [RITTERAZINE W]

EC50 (P388): 657 nM
Compound: C[C@H]1[C@H]2[C@H](C[C@@H]3[C@@H]4CC[C@H]5Cc6nc7c(nc6C[C@]5(C)[C@H]4C[C@@H](O)[C@]23C)C[C@@H]2CC[C@@H]3[C@@H](CC(=O)[C@]34C[C@@H]3O[C@]5(CCC(C)(C)O5)[C@@H](C)[C@@H]3[C@]4(C)O)[C@@]2(C)C7)O[C@@]12CCC(C)(C)O2 [RITTERAZINE Q]
